Reference: US10106532B2, “Inhibitors of beta-hydroxylase for treatment of cancer” (MIDWESTERN UNIVERSITY, priority 2012, dated 2018)
Entries after “also recorded” stand apart in the source; their conditions may differ.

Legend:
[1] = test system: HPAFH AsPC-1 human PC cell line; test: subcutaneous pancreatic cancer tumor growth in nude mice; format: in vivo
Protocol: FIG. 4A is a line graph showing tumor volume, and FIG. 4B is a bar graph showing tomor weight. […] There were 15 nude mice in each group. i.p. injection (20 mg/kg/mouse). Vertical bars; standard error.
The HPAFH AsPC-1 human PC cell line which expresses a high level of ASPH was implanted (5×10^6 cells s.c.) into the back of nude mice. Tumors were allowed to grow to approximately 100 mm^3 after one week, and MO-1-1100 was then administered intraperitoneal (i.p.) at a concentration of 50 mg/kg. The treatment regimen as shown in FIGS. 4A-B included i.p. injections on a daily basis for five days followed by every other day until the experiment was terminated due to the large size of tumors observed in the control group that received a DMSO vehicle injection. […] There were 15 nude mice in each group (control vs. treatment).

Huh7 = test: cell viability; format: cell-based, human; settings: 5 μM
FOCUS cells = test: invasion assay using matrigel coated membrane; format: cell-based, human; settings: 6 hours, compared to DMSO control
Protocol: The β-hydroxylase activity is required for ASPH to mediate its effects on cell motility. Directional motility was measured using Boyden chamber-type culture inserts equipped with porous membranes. FOCUS cells were pretreated with 5 μM of MO-1-1100 and MO-1-500 β-hydroxylase inhibitor for 24 hours, and then placed into the upper chamber. Migration was allowed to proceed for 30 min. ATPLite was used to quantify viable cell density. The cells in the upper well and upper surface of membrane reflects the number of non-migrating cells, luminescence measured at the bottom surface of the membrane reflects the number of migrating and non-adherent cells and luminescence measured in the bottom well was reflect migrating and non-adherent cells. […] Cell invasiveness was assessed by invasion assay using matrigel coated membrane, in which cells were allowed to proceed for 6 hours; those found adhered on the bottom surface of membrane were regarded as invading cells.

`NC1=C(OS(=O)(=O)Cc2ccccc2)C(=O)C(c2ccc(Cl)cc2)O1` (racemic) [MO-1-1100] was tested, and the “HPAFH tumor formation, growth rate” value ([1]; i.p. 50 mg/kg, daily for five days followed by every other day) was “substantial inhibition”, the “PC tumor growth (tumor volume, tumor weight)” value ([1]; i.p. injection (20 mg/kg/mouse), FIG. 4 legend) was “anti-tumor effect” and the “cell viability, inhibition rate” value (Huh7) was 50%. For the same compound, the invasiveness (FOCUS cells) was “significantly reduced; also recorded: significantly inhibited”.
